pKd: −log10 of the molar value.
Target: catalytic subunit of the cAMP-dependent protein kinase A (PKA-C) (Mus musculus, UniProt P05132)
Assay: isothermal titration calorimetry
Assay type: binding

pKd: ~3.60
Structure (SMILES): Nc1ncnc2c1ncn2[C@@H]1O[C@H](COP(=O)(O)O)[C@@H](O)[C@H]1O [AMP]

— PMC4775281 (Structure (London, England : 1993), 2016)
